Data set [1] concerns the target T1, CYP2C8 (Homo sapiens, UniProt P10632).
T1 sequence (P10632 1-490): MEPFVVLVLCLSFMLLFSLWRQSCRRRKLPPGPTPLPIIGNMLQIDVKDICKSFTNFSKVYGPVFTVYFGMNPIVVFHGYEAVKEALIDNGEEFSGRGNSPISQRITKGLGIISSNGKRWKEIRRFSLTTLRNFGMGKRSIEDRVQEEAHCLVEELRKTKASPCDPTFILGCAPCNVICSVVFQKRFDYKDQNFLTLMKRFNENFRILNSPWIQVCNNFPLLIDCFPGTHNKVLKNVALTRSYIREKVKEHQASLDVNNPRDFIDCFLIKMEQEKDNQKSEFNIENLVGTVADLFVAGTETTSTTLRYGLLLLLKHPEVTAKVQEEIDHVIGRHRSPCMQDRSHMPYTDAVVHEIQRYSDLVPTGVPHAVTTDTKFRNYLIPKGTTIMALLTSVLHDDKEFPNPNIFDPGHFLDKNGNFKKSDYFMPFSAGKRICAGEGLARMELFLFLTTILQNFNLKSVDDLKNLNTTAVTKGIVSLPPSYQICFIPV
Put plainly: Competitive CYP2C8 inhibition. Conditions: PBPK input. The class given is biochemical. An excerpt:
(§1) The PBPK model was constructed by combining alectinib-specific physicochemical information (molecular weight, logP, pKa, etc.), and the in vitro and in vivo study results obtained so far, with the physiological information on the target population in the SimCYP (registered trademark) software (Certara, Sheffield, UK) (Table 2).

Data set [2] in a line: Vss after intravenous administration in healthy subjects (Morcos et al.). Conditions: human, in vivo, 50 μg, 475 L normalized with 74.8 kg, read-out: Actual Vss.
Data set [3] is described as follows: Absorption parameters fitted to clinical PK profiles in Japanese adult patients (JP28927). The class given is in vivo.
Excerpt: It was then optimized using clinical trial results in Japanese adults as parameters related to the absorption process were incorporated into the model.
Data set [4] deals with T2, CYP3A4 (Homo sapiens, UniProt P08684). Nature of the data set: Mechanism-based CYP3A4 inhibition. It counts as biochemical. Conditions: PBPK input; read-out: Mechanism-based inhibitor CYP3A4 inhibition Ki.
Excerpt: as §1

A short description of data set [5]: Physicochemical input parameters of alectinib for PBPK model.
Excerpt: as §1

Data set [6] deals with CYP2J2. Put plainly: Intrinsic clearance assigned to CYP2J2. It counts as in vitro ADME. Conditions: CYP2J2 arbitrarily assigned, true enzyme not known.
Excerpt: as §1

Data set [7] can be described thus: Intrinsic clearance, other HLM. It counts as in vitro ADME. Conditions: human, human liver microsomes; PBPK input; read-out: CLint, HLMother.
Excerpt: as §1

The nature of data set [8]: Blood-to-plasma ratio and free fractions (PBPK input). It counts as in vitro ADME.
Excerpt: as §1

Data set [9] deals with CYP3A4. Nature of the data set: CYP3A4 induction. The class given is in vitro ADME. Conditions: PBPK input.
Excerpt: as §1

Data set [10] has as its target T2, CYP3A4. Nature of the data set: Intrinsic clearance by CYP3A4. It counts as in vitro ADME.
Excerpt: For pediatric PK prediction, especially for children under the age of 2 years, the need to consider developmental changes in the expression of drug-metabolizing enzymes and the like, in addition to the changes in body size associated with growth, has been reported (C Wagner, P Zhao, Y Pan, V Hsu, J Grillo, S M Huang, V Sinha. Application of Physiologically Based Pharmacokinetic (PBPK) Modeling to Support Dose Selection: Report of an FDA Public Workshop on PBPK. CPT Pharmacometrics Syst Pharmacol. 2015 April; 4(4): 226-30).
as §1
To predict pediatric PK, the physiological information on Japanese adults was replaced with that on Japanese children. […] The inter-individual variability in blood concentration on this simulation was calculated based on Japanese demographic data (Japanese pediatric demographic data source from Japanese Ministry of Health, Labour, and Welfare. Available from: […]

The subject of data set [11] is recurrent/refractory childhood cancers. Conditions: IMT with ALK fusion gene, ALCL, neuroblastoma, other malignant solid tumors; cited from earlier work.
The mark [12] stands for this setting: fitted, multiple p.o. with standard meal, 150 mg capsule, Japanese adult patients.

T2 sequence (P08684 whole entry): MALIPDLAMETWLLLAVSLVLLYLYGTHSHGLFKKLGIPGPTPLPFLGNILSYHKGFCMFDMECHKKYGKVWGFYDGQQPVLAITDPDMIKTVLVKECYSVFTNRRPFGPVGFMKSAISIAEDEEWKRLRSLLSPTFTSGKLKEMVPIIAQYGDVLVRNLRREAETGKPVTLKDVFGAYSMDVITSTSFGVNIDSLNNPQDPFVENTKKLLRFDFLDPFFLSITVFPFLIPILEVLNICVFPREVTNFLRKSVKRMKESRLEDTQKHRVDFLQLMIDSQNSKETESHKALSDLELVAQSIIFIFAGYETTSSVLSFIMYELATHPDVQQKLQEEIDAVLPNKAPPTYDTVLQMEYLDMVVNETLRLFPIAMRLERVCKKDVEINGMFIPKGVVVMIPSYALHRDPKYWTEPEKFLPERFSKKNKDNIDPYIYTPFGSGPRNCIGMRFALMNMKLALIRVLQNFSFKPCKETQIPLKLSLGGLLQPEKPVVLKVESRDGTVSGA

In data set [1], `CCc1cc2c(cc1N1CCC(N3CCOCC3)CC1)C(C)(C)c1[nH]c3cc(C#N)ccc3c1C2=O` [alectinib, 9-ethyl-6,6-dimethyl-8-(4-morpholin-4-yl-piperidin-1-yl)-11-oxo-6,11-dihydro-5H-benzo[b]carbazole-3-carbonitrile] gave a Ki of 0.147 µM. Further, in data set [2], the Vd was found to be 6.35 L/kg. The same compound came in with a QGUT in data set [3] (first-order absorption model (assumed)) of 8.49 L/h. In data set [3] (setting [12]), this compound yielded a Fa of 0.48, a Lag time of 2.92 h and a ka of 0.22 h⁻¹. The Ki in [4] is 8.29 µM. Further, in data set [5], the logP (commonly the decadic logarithm of the partition coefficient of the neutral form, usually between octanol and water) stood at 1.96. In addition, the “pKa 1” value in data set [5] (monoprotic base) worked out at 7.05. The “CLint, CYP2J2” value in [6] is reported as 285 μL/min/pmol of μL/min/pmol of isoform. For the same compound, the microsomal CLint in data set [7] came to 1710 µL/min/mg. The fuGut in data set [8] is 0.01. Further, the “CYP3A4 induction Indslope” value in data set [9] was 3.52 µM⁻¹. Further, in data set [10], the “Contribution of CYP3A4 to hepatic metabolic clearance” value is “about 40%”. Moreover, the “CLint, CYP3A4” value in data set [10] (PBPK input) is 9.98 μL/min/pmol of μL/min/pmol of isoform.

Take `C[C@@H](Oc1cc(-c2cnn(C3CCNCC3)c2)cnc1N)c1c(Cl)ccc(F)c1Cl` [crizotinib]: in data set [11], the “Clinical efficacy in childhood cancers” value is reported as “has clinical efficacy in these childhood cancers”.
